# Test results from patent publication US20100178286A1, “METHODS AND COMPOSITIONS FOR REDUCING FACIAL LINES AND WRINKLES” (priority 2007, published 2010).
# System: epidermis / stratum corneum (skin cell renewal)
# Assay: Skin cell renewal (dansyl chloride) method
# Type: in vivo, human
# Settings: standard positive control; topical, pH 3.0 dissolved in water; vs untreated site
# Text: Several test methods were used to evaluate results of the compositions according to the present disclosure. One test method used was the skin cell renewal (dansyl chloride) method. The rate of cell renewal, or the transit time for an epidermal basal cell, to mature and slough off the skin surface can be assessed via a dansyl chloride staining method. As we age the rate of renewal decreases from about 15-20 days for a person to about 30 days for a person. […]
# The full thickness epidermis was stained with a fluorescent dye as follows: 5% ultra pure dansyl chloride was milled into petrolatum and applied as a very thin film to standard adhesive bandages that were 2 cm by 3 cm. […] Staining was confirmed by viewing the sites with a long wave (ultra violet) UV light source to detect dansyl chloride fluorescence. […]
# To assess product effects on cell renewal rates, test products were applied topically twice a day in a randomized fashion to the test sites with an untreated site serving as a control. […] Removal of the stain, reflecting loss of stratum corneum was monitored daily with the UV light source until complete removal, usually occurring in 3-4 weeks, of all stain was noted. The percentage increase in cell renewal was calculated as follows: […]
structure (smiles),measurement,value
"CC(O)C(=O)O (stereo not shown) [5% lactic acid, lactic acid]",increases in renewal rates (percentage increase in cell renewal),25-30%
